Source: ChEMBL document CHEMBL1938294, “DNA binding and anticancer activity of naphthalimides with 4-hydroxyl-alkylamine side chains at different lengths” (Bioorg Med Chem Lett, 2012)
Activity calls are given as the source filed them. No cut-off for these calls is given here.

Legend:
[1] = tested on: Nucleic Acid; assay: Binding affinity to calf thymus DNA assessed as efficiency of fluorescence enhancement at 1 x 10^-5 M by fluorescence spectroscopy; type: nucleic-acid assay; settings: Bos taurus
[2] = tested on: Nucleic Acid; assay: Binding affinity to calf thymus DNA assessed as bathochromic shift at 1 x 10^-5 M by UV-Vis spectroscopy; type: nucleic-acid assay; settings: Bos taurus
[3] = tested on: Nucleic Acid; assay: Binding affinity to calf thymus DNA assessed as melting temperature at 5 x 10^-6 M by thermal denaturation assay (reference value: 68.4 degC); type: nucleic-acid assay; settings: Bos taurus
[4] = tested on: Nucleic Acid; assay: Binding affinity to calf thymus DNA assessed as intercalation at 2 x 10^-5 M by CD spectroscopy; type: nucleic-acid assay; settings: Bos taurus
[5] = tested on: HL-60; assay: Cytotoxicity against human HL60 cells by MTT assay; type: functional, cell-based
[6] = tested on: Nucleic Acid; assay: Binding affinity to calf thymus DNA assessed as change in melting temperature at 5 x 10^-6 M by thermal denaturation assay; type: nucleic-acid assay; settings: Bos taurus
[7] = tested on: Nucleic Acid; assay: Binding affinity to calf thymus DNA by UV-Vis spectroscopy; type: nucleic-acid assay; settings: Bos taurus
[8] = tested on: Bel-7402; assay: Cytotoxicity against human Bel7402 cells by MTT assay; type: functional, cell-based
[9] = tested on: Nucleic Acid; assay: Binding affinity to calf thymus DNA assessed as hypochromicity at 1 x 10^-5 M by UV-Vis spectroscopy; type: nucleic-acid assay; settings: Bos taurus
[10] = tested on: Nucleic Acid; assay: Binding affinity to calf thymus DNA assessed as intercalation at 1 x 10^-5 M by fluorescence spectroscopy; type: nucleic-acid assay; settings: Bos taurus

Question: With `CN(C)CCN1C(=O)c2cccc3c(NCCCO)ccc(c23)C1=O` as the molecule, how does the KSV [1] read?
Answer: Its KSV is 4.03 ×10³ /M.

Question: What about the Activity [2] of the same molecule?
Answer: The Activity was 453 nm.

Question: And the Tm [3]?
Answer: Its Tm is 71.9 °C.

Question: And the Activity [4]?
Answer: The Activity was “Active”.

Question: What about the IC50 [5] of the same molecule?
Answer: The IC50 was 38.5 µM.

Question: And the ΔTm [6]?
Answer: Its ΔTm is 3.5 °C.

Question: And the K [7]?
Answer: Its K is 1.03 ×10⁴ /M.

Question: What about the IC50 [8] of the same molecule?
Answer: Its IC50 is 33.5 µM.

Question: What about the Activity [9] of the same molecule?
Answer: The Activity was 31%.

Question: And the Activity [10]?
Answer: Its Activity is “Active”.

Question: Which KSV [1] does the source give for `CN(C)CCN1C(=O)c2cccc3c(NCCCCCO)ccc(c23)C1=O` here?
Answer: Its KSV is 4.36 ×10³ /M.

Question: What about the Activity [2] of the same molecule?
Answer: Its Activity is 453 nm.

Question: And the Tm [3]?
Answer: Its Tm is 72.2 °C.

Question: What about the Activity [4] of the same molecule?
Answer: The Activity was “Active”.

Question: And the IC50 [5]?
Answer: The IC50 was 17.7 µM.

Question: And the ΔTm [6]?
Answer: The ΔTm was 3.8 °C.

Question: What about the K [7] of the same molecule?
Answer: Its K is 1.2 ×10⁴ /M.

Question: What about the IC50 [8] of the same molecule?
Answer: Its IC50 is 9.17 µM.

Question: And the Activity [9]?
Answer: Its Activity is 31%.

Question: What about the Activity [10] of the same molecule?
Answer: Its Activity is “Active”.

Question: What does the source list for `CN(C)CCN1C(=O)c2cccc3c(NCCCCCCO)ccc(c23)C1=O`?
Answer: KSV [1]: 7.12 ×10³ /M; Activity [2]: 453 nm; Tm [3]: 71.8 °C; Activity [4]: Active; IC50 [5]: 20.5 µM; ΔTm [6]: 3.4 °C; K [7]: 1.1 ×10⁴ /M; IC50 [8]: 17.5 µM; Activity [9]: 31%; Activity [10]: Active

Question: What does the source list for `CN(C)CCN1C(=O)c2cccc3c(NCCO)ccc(c23)C1=O`?
Answer: KSV [1]: 3.12 ×10³ /M; Activity [2]: 447 nm; Tm [3]: 71 °C; Activity [4]: Active; IC50 [5]: 25.9 µM; ΔTm [6]: 2.6 °C; K [7]: 1.44 ×10⁴ /M; IC50 [8]: 30.9 µM; Activity [9]: 31%; Activity [10]: Active

Question: `CN(C)CCN1C(=O)c2cccc3c(NCCCCO)ccc(c23)C1=O` was tested. Which KSV [1] did it give?
Answer: The KSV was 1.15 ×10³ /M.

Question: What about the Activity [2] of the same molecule?
Answer: The Activity was 452 nm.

Question: And the Tm [3]?
Answer: Its Tm is 71.2 °C.

Question: And the Activity [4]?
Answer: Its Activity is “Active”.

Question: And the IC50 [5]?
Answer: The IC50 was 11.2 µM.

Question: What about the ΔTm [6] of the same molecule?
Answer: Its ΔTm is 2.8 °C.

Question: And the K [7]?
Answer: Its K is 0.74 ×10⁴ /M.

Question: And the IC50 [8]?
Answer: Its IC50 is 5.57 µM.

Question: And the Activity [9]?
Answer: Its Activity is 30%.

Question: What about the Activity [10] of the same molecule?
Answer: Its Activity is “Active”.
